Results as given in patent US11986471B2, “Compounds and methods of use” (Tango Therapeutics, Inc., priority 2018, dated 2024).

Tests used:
PRMT5 [1] = biological target: T1, PRMT5 (Homo sapiens, UniProt O14744); assay: PRMT5 IC50 assay in the presence of SAM as cofactor; assay type: biochemical
T1 construct: purchased Viva (custom protein)
How it was run: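 Cofactor-free, SAM and MTA formats; IC50 μM; Ki = IC50/1.5 for SAM, IC50/13.5 for MTA.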

PRMT5 [2] = biological target: T1, PRMT5; assay: PRMT5 IC50 assay with no cofactor; assay type: biochemical; details: read-out: No Co-factor IC50
How it was run: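 Enzyme: human PRMT5. Conditions: plus SAM, plus MTA, or cofactor-free. Output: IC50 (μM); Ki via IC50/1.5 (SAM) or IC50/13.5 (MTA).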

PRMT5 [3] = biological target: T1, PRMT5; assay: PRMT5 IC50 assay in the presence of MTA as cofactor; assay type: biochemical; details: for IC50: PRMT5, MTA as cofactor; for SAM/MTA Ratio: ratio between Ki in the presence of SAM and Ki in the presence of MTA
How it was run: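 Each compound is tested on PRMT5 in the presence of SAM, of MTA, and without any cofactor. Ki values are then back-calculated using fixed factors of 1.5 (SAM) and 13.5 (MTA), and the two Ki values are compared as a ratio.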

HAP1 MTAP-intact = assay: SDMA in-cell western assay, HAP1 MTAP-intact cell line; assay type: cell-based; details: Homo sapiens
How it was run: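 Cells from two matched HAP1 lines, MTAP-null and MTAP-expressing at endogenous levels, are treated with compound. SDMA is then quantified by in-cell western and an IC50 is calculated for each line.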

HAP1 MTAP-deleted = assay: SDMA in-cell western assay, HAP1 MTAP-deleted cell line; assay type: cell-based; details: for IC50: Homo sapiens, HAP1 MTAP-deleted cell line; for MTAP Intact/Deleted Ratio: IC50 ratio HAP1 MTAP-intact / HAP1 MTAP-deleted
How it was run: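 MTAP-null HAP1 cells, the deleted member of an isogenic pair with endogenously MTAP-expressing HAP1, are treated with compound. SDMA is then quantified by in-cell western and an IC50 is calculated.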

T1 sequence (O14744 whole entry): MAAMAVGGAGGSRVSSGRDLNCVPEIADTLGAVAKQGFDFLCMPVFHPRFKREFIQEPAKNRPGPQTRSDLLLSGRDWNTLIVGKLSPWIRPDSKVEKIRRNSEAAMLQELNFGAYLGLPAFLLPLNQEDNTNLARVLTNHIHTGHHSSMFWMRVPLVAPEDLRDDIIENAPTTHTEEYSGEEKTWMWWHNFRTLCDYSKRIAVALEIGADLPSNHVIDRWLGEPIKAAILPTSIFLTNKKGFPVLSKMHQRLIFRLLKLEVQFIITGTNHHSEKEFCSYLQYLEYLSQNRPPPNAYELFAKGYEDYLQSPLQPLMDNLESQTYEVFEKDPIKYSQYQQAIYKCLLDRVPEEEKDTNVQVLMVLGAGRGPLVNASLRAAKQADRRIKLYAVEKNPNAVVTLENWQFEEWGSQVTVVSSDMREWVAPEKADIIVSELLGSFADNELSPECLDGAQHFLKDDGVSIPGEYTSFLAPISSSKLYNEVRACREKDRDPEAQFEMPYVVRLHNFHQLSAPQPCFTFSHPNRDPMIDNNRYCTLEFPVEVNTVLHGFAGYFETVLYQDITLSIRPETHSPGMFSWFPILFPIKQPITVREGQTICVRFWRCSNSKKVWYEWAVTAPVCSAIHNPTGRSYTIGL
T1 sequence (Q9BQA1 whole entry partner): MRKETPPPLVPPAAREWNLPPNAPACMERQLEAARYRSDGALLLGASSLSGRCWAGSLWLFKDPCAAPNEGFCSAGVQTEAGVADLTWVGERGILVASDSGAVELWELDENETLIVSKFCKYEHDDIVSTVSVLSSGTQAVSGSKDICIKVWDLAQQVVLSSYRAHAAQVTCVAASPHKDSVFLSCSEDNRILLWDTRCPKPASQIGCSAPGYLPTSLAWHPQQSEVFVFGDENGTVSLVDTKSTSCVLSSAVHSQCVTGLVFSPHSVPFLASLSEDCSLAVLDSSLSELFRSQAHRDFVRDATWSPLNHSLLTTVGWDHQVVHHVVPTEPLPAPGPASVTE

SMILES	IC50 (PRMT5 [1]) [nM]	IC50 (PRMT5 [2]) [nM]	IC50 (PRMT5 [3]) [nM]	SAM/MTA Ratio (PRMT5 [3])	IC50 (HAP1 MTAP-intact) [nM]	IC50 (HAP1 MTAP-deleted) [nM]	MTAP Intact/Deleted Ratio (HAP1 MTAP-deleted)
CC(=O)N1CCC(Nc2cc(C(=O)NC[C@H](O)CN3CCc4nc(OCc5cnco5)ccc4C3)ncn2)CC1 [Compound 412, 6-[(1-acetyl-4-piperidyl)amino]-N-[(2S)-2-hydroxy-3-[2-(oxazol-5-ylmethoxy)-7,8-dihydro-5H-1,6-naphthyridin-6-yl]propyl]pyrimidine-4-carboxamide]	500 to 5000	≥ 5000	50 to 500	A (a Ki ratio greater than or equal to 10 fold between the Ki in the presence of SAM and the Ki in the presence of MTA)	≥ 10000	≥ 10000	C* (an IC50 ratio of less than 3 fold between the IC50 in the HAP1 MTAP-intact cell line and the HAP1 MTAP-deleted cell line)
O=C(NC[C@H](O)CN1CCc2nc(OCc3cnco3)ccc2C1)c1ccnc(NC2CCC2)c1 [Compound 413, 2-(cyclobutylamino)-N-[(2S)-2-hydroxy-3-[2-(oxazol-5-ylmethoxy)-7,8-dihydro-5H-1,6-naphthyridin-6-yl]propyl]pyridine-4-carboxamide]	500 to 5000	≥ 5000	500 to 5000	A (a Ki ratio greater than or equal to 10 fold between the Ki in the presence of SAM and the Ki in the presence of MTA)	≥ 10000	≥ 10000	C* (an IC50 ratio of less than 3 fold between the IC50 in the HAP1 MTAP-intact cell line and the HAP1 MTAP-deleted cell line)
Cc1ncoc1COc1ccc2c(c1C)CCN(C[C@@H](O)CNC(=O)c1cc(NC3COC3)nc(N3CCN(C(=O)C4CC4)CC3)n1)C2 [Compound 414, 2-(4-cyclopropanecarbonylpiperazin-1-yl)-N-[(2S)-2-hydroxy-3-{5-methyl-6-[(4-methyl-1,3-oxazol-5-yl)methoxy]-1,2,3,4-tetrahydroisoquinolin-2-yl}propyl]-6-[(oxetan-3-yl)amino]pyrimidine-4-carboxamide]	50 to 500	≥ 5000	50 to 500	A (a Ki ratio greater than or equal to 10 fold between the Ki in the presence of SAM and the Ki in the presence of MTA)	≥ 10000	< 1000	A* (an IC50 ratio greater than or equal to 10 fold between the IC50 in the HAP1 MTAP-intact cell line and the HAP1 MTAP-deleted cell line)
CCCN(C)c1cc(C(=O)NC[C@H](O)CN2CCc3cc(OCc4cnco4)ccc3C2)cc(NC2CCC2)n1 [Compound 415]	50 to 500	500 to 5000	50 to 500	A (a Ki ratio greater than or equal to 10 fold between the Ki in the presence of SAM and the Ki in the presence of MTA)	1000 to 10000	< 1000	C* (an IC50 ratio of less than 3 fold between the IC50 in the HAP1 MTAP-intact cell line and the HAP1 MTAP-deleted cell line)
Cc1ncoc1COc1ccc2c(c1)CCN(C[C@@H](O)CNC(=O)c1ccc(OC3CCN(Cc4ccncc4)CC3)cc1)C2 [Compound 416, N-[(2S)-2-hydroxy-3-{6-[(4-methyl-1,3-oxazol-5-yl)methoxy]-1,2,3,4-tetrahydroisoquinolin-2-yl}propyl]-4-{[1-[(pyridin-4-yl)methyl]piperidin-4-yl}oxy)benzamide]	50 to 500	500 to 5000	50 to 500	A (a Ki ratio greater than or equal to 10 fold between the Ki in the presence of SAM and the Ki in the presence of MTA)	< 1000	< 1000	C* (an IC50 ratio of less than 3 fold between the IC50 in the HAP1 MTAP-intact cell line and the HAP1 MTAP-deleted cell line)
CCC(=O)N1CCN(c2cc(C(=O)NC[C@H](O)CN3CCc4c(ccc(OCc5ocnc5C)c4C)C3)cc(NC3CCC3)n2)CC1 [Compound 417, 2-(cyclobutylamino)-N-[(2S)-2-hydroxy-3-{5-methyl-6-[(4-methyl-1,3-oxazol-5-yl)methoxy]-1,2,3,4-tetrahydroisoquinolin-2-yl}propyl]-6-(4-propanoylpiperazin-1-yl)pyridine-4-carboxamide]	50 to 500	500 to 5000	50 to 500	A (a Ki ratio greater than or equal to 10 fold between the Ki in the presence of SAM and the Ki in the presence of MTA)	≥ 10000	< 1000	A* (an IC50 ratio greater than or equal to 10 fold between the IC50 in the HAP1 MTAP-intact cell line and the HAP1 MTAP-deleted cell line)
Cc1ncoc1COc1ccc2c(c1C)CCN(C[C@@H](O)CNC(=O)c1ccnc(NC3CCCC3)c1)C2 [Compound 418, 2-(cyclopentylamino)-N-[(2S)-2-hydroxy-3-{5-methyl-6-[(4-methyl-1,3-oxazol-5-yl)methoxy]-1,2,3,4-tetrahydroisoquinolin-2-yl}propyl]pyridine-4-carboxamide]	50 to 500	≥ 5000	50 to 500	A (a Ki ratio greater than or equal to 10 fold between the Ki in the presence of SAM and the Ki in the presence of MTA)	≥ 10000	1000 to 10000	C* (an IC50 ratio of less than 3 fold between the IC50 in the HAP1 MTAP-intact cell line and the HAP1 MTAP-deleted cell line)
CN1CCN(c2cc(C(=O)NC[C@H](O)CN3CCc4c(ccc(OCc5cnco5)c4Cl)C3)cc(NC3CCC3)n2)CC1 [Compound 419, (S)—N-(3-(5-chloro-6-(oxazol-5-ylmethoxy)-3N-dihydroisoquinolin-2(1H)-yl)-2-hydroxypropyl)-2-(cyclobutylamino)-6-(4-methylpiperazin-1-yl)isonicotinamide]	50 to 500	500 to 5000	50 to 500	A (a Ki ratio greater than or equal to 10 fold between the Ki in the presence of SAM and the Ki in the presence of MTA)	≥ 10000	≥ 10000	C* (an IC50 ratio of less than 3 fold between the IC50 in the HAP1 MTAP-intact cell line and the HAP1 MTAP-deleted cell line)
O=C(NC[C@H](O)CN1CCc2c(ccc(OCc3cnco3)c2Cl)C1)c1ccnc(NC2CCCCC2)c1 [Compound 420, (S)—N-(3-(5-chloro-6-(oxazol-5-ylmethoxy)-3N-dihydroisoquinolin-2(1H)-yl)-2-hydroxypropyl)-2-(cyclohexylamino)isonicotinamide]	50 to 500	500 to 5000	50 to 500	A (a Ki ratio greater than or equal to 10 fold between the Ki in the presence of SAM and the Ki in the presence of MTA)	≥ 10000	≥ 10000	C* (an IC50 ratio of less than 3 fold between the IC50 in the HAP1 MTAP-intact cell line and the HAP1 MTAP-deleted cell line)
Cc1ncoc1COc1ccc2c(c1C)CCN(C[C@@H](O)CNC(=O)c1cc(NC3COC3)nc(N3CCN(C(=O)C(C)C)CC3)n1)C2 [Compound 421, N-[(2S)-2-hydroxy-3-{5-methyl-6-[(4-methyl-1,3-oxazol-5-yl)methoxy]-1,2,3,4-tetrahydroisoquinolin-2-yl}propyl]-2-[4-(2-methylpropanoyl)piperazin-1-yl]-6-[(oxetan-3-yl)amino]pyrimidine-4-carboxamide]	50 to 500	≥ 5000	50 to 500	A (a Ki ratio greater than or equal to 10 fold between the Ki in the presence of SAM and the Ki in the presence of MTA)	≥ 10000	1000 to 10000	B* (an IC50 ratio greater than or equal to 3 fold but lower than 10 fold between the IC50 in the HAP1 MTAP-intact cell line and the HAP1 MTAP-deleted cell line)
O=C(NC[C@H](O)CN1CCc2cc(OCc3cnco3)ccc2C1)c1cc(NC2CCC2)nc(N2CCNCC2)c1 [Compound 422]	50 to 500	500 to 5000	50 to 500	A (a Ki ratio greater than or equal to 10 fold between the Ki in the presence of SAM and the Ki in the presence of MTA)	1000 to 10000	1000 to 10000	C* (an IC50 ratio of less than 3 fold between the IC50 in the HAP1 MTAP-intact cell line and the HAP1 MTAP-deleted cell line)
Cc1ncoc1COc1ccc2c(c1C)CCN(C[C@@H](O)CNC(=O)c1cc(NC3COC3)nc(N3CCOCC3)n1)C2 [Compound 423, N-[(2S)-2-hydroxy-3-{5-methyl-6-[(4-methyl-1,3-oxazol-5-yl)methoxy]-1,2,3,4-tetrahydroisoquinolin-2-yl}propyl]-2-(morpholin-4-yl)-6-[(oxetan-3-yl)amino]pyrimidine-4-carboxamide]	500 to 5000	≥ 5000	50 to 500	A (a Ki ratio greater than or equal to 10 fold between the Ki in the presence of SAM and the Ki in the presence of MTA)	≥ 10000	1000 to 10000	C* (an IC50 ratio of less than 3 fold between the IC50 in the HAP1 MTAP-intact cell line and the HAP1 MTAP-deleted cell line)
